Experimental data: patent US20250257041A1, “INDUCERS OF INTEGRATED STRESS RESPONSE TO TREAT CANCER” (The Board of Regents of The University of Texas System, priority 2022, published 2025)
Like-named read-outs stand apart in the source and are kept apart here.

How the values were obtained:
HCT116 WT = assay: Proliferation of HCT116 colorectal cell line, Cell TiterGlo; format: cell-based, human
Summary of the method: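 Cell viability by CellTiter-Glo in parental HCT116, in a GCN2-knockout line, and in parental cells co-treated with ISRIB. IC50 from triplicate 10-point titrations; repeated values come from separate runs.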

RPS23 = molecular target: T1, RPS23 (Homo sapiens, UniProt P62266); assay: Photo-crosslinking in HCT116 cells, biotin-azide click, streptavidin pull-down, western blot for RPS23; format: binding; details: HCT116 wild-type or RPS23 del R107-G109 mutant, UV irradiation
T1 construct: endogenous in cells; host or cells: HCT116
Protocol: Next HCT116 cells were incubated with SW393071 analogs conjugated to a photo-crosslinker (analogs: SW393065, SW393212 and SW393213), and irradiated with UV light. The cells were lysed and click-conjugated to biotin-azide. Drug-bound proteins were pulled down with streptavidin coated beads and resolved on an SDS-PAGE gel.
Wild-type or RPS23 del R107-G109 knock-in mutant HCT116 cells were incubated with photo-crosslinker analog SW393212 and irradiated with UV light. The cells were lysed, and click-conjugated to biotin-azide essentially as shown in Example 7. Drug-bound proteins were pulled down with streptavidin coated beads and resolved on an SDS-PAGE gel.

HCT116 GCN2KO = assay: Proliferation of HCT116 cells with GCN2 knocked out (CRISPR), Cell TiterGlo; format: cell-based, human; details: Homo sapiens, HCT-116; HCT116 cells with GCN2 knocked out using CRISPR; read-out: HCT116 IC50 (uM) HCT116 − GCN2KO
Protocol: Briefly, compounds were tested for their effect on proliferation of HCT116 colorectal cell lines using Cell TiterGlo (Promega). Each compound was tested in a 10-point dose response experiment in triplicate. Multiple values in the column titled HCT116 WT reflect separate independent experiments. The three columns titled “HCT116 WT (repeat)”, “HCT116-CGN2KO” and “HCT116 WT+ISRIB” provide data for selected compounds that were tested simultaneously under three conditions. The HCT116 WT column lists IC50 against the wild type HCT116 colorectal cancer cell line. The HCT116-CGN2KO lists IC50 data for cells in which one component of the integrated stress response, GCN2, has been knocked out using CRISPR technology.

[1] = Homo sapiens, HCT-116, wild type HCT116, 10-point dose response in triplicate, multiple values = separate independent experiments, read-out: HCT116 IC50 (uM) HCT116 WT
[2] = Homo sapiens, HCT-116, wild type HCT116, tested simultaneously with GCN2KO and +ISRIB, read-out: HCT116 IC50 (uM) HCT116 WT (repeat)
[3] = wild type HCT116, compound plus 10 nM of ISRIB, read-out: HCT116 IC50 (uM) HCT116 WT + ISRIB

`C#Cc1cccc(C(=O)Nc2cc(-c3ccc(NC(=O)c4cc(N=[N+]=[N-])ccc4Cl)cc3)nn2C)c1` [SW393212, 5-Azido-2-chloro-N-(4-(5-(3-ethynylbenzamido)-1-methyl-1H-pyrazol-3-yl)phenyl)benza-mide] was tested, and the IC50 (HCT116 WT; [1]) was 0.72 µM and the “RPS23 bands after photo-crosslinking pull-down” value (RPS23) was “bands from WT but not RPS23 mutant cells”.

With `CSc1ccccc1C(=O)Nc1ccc(-c2cc(NC(=O)c3ccccc3)n(C)n2)cc1` [SW393169, N-(4-(5-benzamido-1-methyl-1H-pyrazol-3-yl)phenyl)-2-(methylthio)benzamide] the IC50 (HCT116 GCN2KO) was 0.41 µM, the IC50 (HCT116 WT; [1]) was 0.01 µM and the IC50 (HCT116 WT; [2]) was 0.06 µM. The IC50 (HCT116 WT; [3]) was 0.49 µM.

`Cn1nc(-c2ccc(NC(=O)c3ccccc3)cc2)cc1NC(=O)c1cccc(Cl)c1` [SW389161, N-(3-(4-benzamidophenyl)-1-methyl-1H-pyrazol-5-yl)-3-chlorobenzamide] gave an IC50 (HCT116 GCN2KO) of 11.7 µM, an IC50 (HCT116 WT; [1]) of 1.27 µM and an IC50 (HCT116 WT; [2]) of 1.06 µM. It also gave an IC50 (HCT116 WT; [3]) of 8.26 µM.

In the case of `Cn1nc(-c2ccc(NC(=O)c3ccccn3)cc2)cc1NC(=O)c1ccccc1` [SW393126, N-(4-(5-benzamido-1-methyl-1H-pyrazol-3-yl)phenyl)picolinamide], the IC50 (HCT116 GCN2KO) is reported as 32.9 µM, the IC50 (HCT116 WT; [1]) is reported as 3.32 µM and the IC50 (HCT116 WT; [2]) is reported as 7.17 µM. It also gave an IC50 (HCT116 WT; [3]) of 25.8 µM.

With `C#CCOc1ccccc1C(=O)Nc1ccc(-c2cc(NC(=O)c3ccccc3)n(C)n2)cc1` [SW393168, N-(4-(5-benzamido-1-methyl-1H-pyrazol-3-yl)phenyl)-2-(prop-2-yn-1-yloxy)benzamide] the IC50 (HCT116 GCN2KO) was 2.95 µM, the IC50 (HCT116 WT; [1]) was 0.34 µM and the IC50 (HCT116 WT; [2]) was 1.02 µM. It also gave an IC50 (HCT116 WT; [3]) of 3.23 µM.

Compound `Cn1nc(-c2ccc(NC(=O)c3ccccc3)cc2)cc1NC(=O)c1ccncc1` [SW393129, N-(3-(4-benzamidophenyl)-1-methyl-1H-pyrazol-5-yl)isonicotinamide] has an IC50 (HCT116 GCN2KO) of 4.72 µM, an IC50 (HCT116 WT; [1]) of 0.95 µM and an IC50 (HCT116 WT; [2]) of 2.11 µM. The IC50 (HCT116 WT; [3]) was 4.03 µM.

Work on `Cn1nc(-c2ccc(NC(=O)c3ccccc3)cc2)cc1NC(=O)c1cccc(C(=O)c2ccccc2)c1` [SW389154, N-(3-(4-Benzamidophenyl)-1-methyl-1H-pyrazol-5-yl)-3-benzoylbenzamide] yielded an IC50 (HCT116 GCN2KO) of 0.53 µM, an IC50 (HCT116 WT; [1]) of 0.195 µM and an IC50 (HCT116 WT; [2]) of 0.18 µM. The IC50 (HCT116 WT; [3]) was 0.77 µM.

`Cn1nc(-c2ccc(NC(=O)c3cc(N=[N+]=[N-])ccc3Cl)cc2)cc1NC(=O)c1ccccc1` [SW393171, 5-azido-N-(4-(5-benzamido-1-methyl-1H-pyrazol-3-yl)phenyl)-2-chlorobenzamide] gave an IC50 (HCT116 GCN2KO) of 2.78 µM, an IC50 (HCT116 WT; [1]) of 0.19 µM and an IC50 (HCT116 WT; [2]) of 0.49 µM. The IC50 (HCT116 WT; [3]) was 2.33 µM.

For `Cn1nc(-c2ccc(NC(=O)c3ccccc3)cc2)cc1NC(=O)c1cccc(C(F)(F)F)c1` [SW389155, N-(3-(4-Benzamidophenyl)-1-methyl-1H-pyrazol-5-yl)-3-(trifluoromethyl)benzamide], the IC50 (HCT116 GCN2KO) was 2.2 µM, the IC50 (HCT116 WT; [1]) was 0.416 µM and the IC50 (HCT116 WT; [2]) was 0.46 µM. It also gave an IC50 (HCT116 WT; [3]) of 2.97 µM.

With `Cn1nc(-c2ccc(NC(=O)c3ccccc3)cc2)cc1NC(=O)c1cccc(Br)c1` [SW389162, N-(3-(4-benzamidophenyl)-1-methyl-1H-pyrazol-5-yl)-3-bromobenzamide] the IC50 (HCT116 GCN2KO) was 3.14 µM, the IC50 (HCT116 WT; [1]) was 0.335 µM and the IC50 (HCT116 WT; [2]) was 0.32 µM. For the same compound, the IC50 (HCT116 WT; [3]) was 2.6 µM.
